Assay results from US4696928A, “Substituted dihydroimidazo[1,2-a]quinoxalines” (G. D. Searle & Co., priority 1985, dated 1987).
Values after ≈ are worked out from the molar mass of the structure shown. Values joined by “and” are separate entries in the source; they are usually repeats but may differ in a detail not shown here. Equal values may be shown once. Read-outs that look alike come from different tables or passages of the source.

Assays:
[1] = system: B. fragilis WS-1; test: MIC/MBC broth microdilution, strain E; format: cell-based, Bacteroides fragilis; conditions: for MIC: 37° C., anaerobic; for MBC: 99.9% reduction in viable count after 48 h
[2] = system: B. fragilis NCTC 9343; test: MIC/MBC broth microdilution, strain B; format: cell-based; conditions: Bacteroides fragilis, NCTC9343, 48 h; for MIC: 37° C., anaerobic; for MBC: 99.9% reduction in viable count after 48 h
[3] = system: Peptostreptococcus anaerobicus; test: MIC vs. panel of anaerobes; format: cell-based; conditions: Peptostreptococcus anaerobicus; read-out: MIC
[4] = system: Clostridium difficile NCIB 10666; test: MIC vs. panel of anaerobes; format: cell-based; conditions: Clostridioides difficile, NCIB10666; Clostridium difficile NCIB 10666; read-out: MIC
[5] = system: B. Fragilis ATCC 23745; conditions: for ED (1 log reduction): Bacteroides fragilis, ATCC23745, in Mus musculus, po
[6] = system: B. fragilis NCTC 9344; test: MIC/MBC broth microdilution, strain C; format: cell-based, Bacteroides fragilis; conditions: for MIC: 37° C., anaerobic; for MBC: 99.9% reduction in viable count after 48 h
[7] = system: Fusobacterium necrophorum ATCC 11295; test: MIC vs. panel of anaerobes; format: cell-based; conditions: ATCC11295
[8] = system: Clostridium perfringens NCTC 8237; test: microbe, parasite or virus in culture; format: cell-based; conditions: NCTC8237
[9] = system: Clostridium difficile Cytotoxic 1; test: MIC vs. panel of anaerobes; format: cell-based; conditions: Clostridioides difficile
[10] = system: B. fragilis NCTC 10581; test: MIC/MBC broth microdilution, strain A; format: cell-based; conditions: Bacteroides fragilis, NCTC10581, 48 h; for MIC: 37° C., anaerobic; for MBC: 99.9% reduction in viable count after 48 h
[11] = system: Campylobacter fetus ss.jejuni ATCC 29428; test: MIC vs. panel of anaerobes; format: cell-based; conditions: ATCC29428
[12] = system: Bacteroides melanogenicus NCTC 9336; test: MIC vs. panel of anaerobes; format: cell-based; conditions: NCTC9336; Bacteroides melanogenicus NCTC 9336; read-out: MIC
[13] = system: B. fragilis MZ-R ATCC 11295; test: MIC/MBC broth microdilution, strain D; format: cell-based; conditions: Bacteroides fragilis, ATCC11295, 48 h; for MBC: 99.9% reduction in viable count after 48 h
[14] = system: Clostridium perfringens NCTC 523; test: microbe, parasite or virus in culture; format: cell-based; conditions: NCTC523
[15] = system: Propionebacterium acnes NCTC 7337; test: MIC vs. panel of anaerobes; format: cell-based
[16] = system: Propionebecterium acnes NCTC 737; test: MIC vs. panel of anaerobes; format: cell-based
[17] = Bacteroides fragilis, WS1, 48 h, read-out: MIC
[18] = Bacteroides fragilis, WS1, 48 h
[19] = 48 h, read-out: Dose giving 1 log reduction, p.o., after infection and twice daily for 2 days, 1 log (90%) reduction of CFU/ml liver homogenate vs untreated, compound of Example
[20] = Bacteroides fragilis, NCTC9344, 48 h, read-out: MIC
[21] = Bacteroides fragilis, NCTC9344, 48 h, read-out: MBC
[22] = Fusobacterium necrophorum ATCC 11295, read-out: MIC
[23] = Bacteroides fragilis, WS1, 48 h, 48 h
[24] = Bacteroides fragilis, NCTC9344, 48 h, 48 h

Row | SMILES | MBC [1, 18] [µg/mL] | MIC ([2]; read-out: MIC) [µg/mL] | MBC [2] [µg/mL] | MIC [3] [µg/mL] | MIC [4] [µg/mL] | ED (1 log reduction) [5, 19] [mg/kg] | MIC [6, 20] [µg/mL] | MBC [6, 21] [µg/mL] | MIC [7, 22] [µg/mL] | MIC [8] [µg/mL] | MIC [9] [µg/mL] | MIC ([10]; read-out: MIC) [µg/mL] | MBC [10] [µg/mL] | MIC [11] [µg/mL] | MIC [12] [µg/mL] | MIC [13] [µg/mL] | MBC ([13]; strain D (MZ-R)) [µg/mL] | MIC [14] [µg/mL] | MIC [15] [µg/mL] | MIC [16] [µg/mL] | other results
1 | [O-][N+]1=C(c2ccccc2)C2=NCCN2c2nc(Cl)ccc21 [Example 3, 8-Chloro-1,2-dihydro-4-phenylimidazo[1,2-a]pyrido[3,2-e]-pyrazine 5-oxide] | 6.2 (≈ 20.8 µM) | 12.5 (≈ 41.8 µM) | 12.5 (≈ 41.8 µM) | 50 (≈ 167 µM) | < 0.8 | < 40 | 6.2 (≈ 20.8 µM) | 6.2 (≈ 20.8 µM) | 6.2 (≈ 20.8 µM) | 25 (≈ 83.7 µM) | < 0.8 | 12.5 (≈ 41.8 µM) | 12.5 (≈ 41.8 µM) | 50 (≈ 167 µM) | 100 (≈ 335 µM) | 3.1 (≈ 10.4 µM) | 3.1 (≈ 10.4 µM) | 6.2 (≈ 20.8 µM) | 100 (≈ 335 µM) | > 100 | MIC [1, 17]: 6.2 µg/mL (≈ 20.8 µM)
2 | [O-][N+]1=C(c2ccccc2)C2=NCCN2c2cc(F)ccc21 [Example 1, 1,2-Dihydro-8-fluoro-4-phenylimidazo[1,2-a]quinoxaline 5-oxide] | 3.1 (≈ 11 µM) | – | 3.1 (≈ 11 µM) | 25 (≈ 88.9 µM) | < 0.8 | 7.57 | 1.5 (≈ 5.33 µM) | 1.5 (≈ 5.33 µM) | < 0.8 | 3.1 (≈ 11 µM) | < 0.8 | – | 3.1 (≈ 11 µM) | 2.5 (≈ 8.89 µM) | 25 (≈ 88.9 µM) | 0.8 (≈ 2.84 µM) | 1.5 (≈ 5.33 µM) | 3.1 (≈ 11 µM) | 50 (≈ 178 µM) | 50 (≈ 178 µM) | MIC [1, 23]: 3.1 µg/mL (≈ 11 µM); MIC ([2]; 48 h): 3.1 µg/mL (≈ 11 µM); MIC ([10]; 48 h): 3.1 µg/mL (≈ 11 µM)
3 | [O-][N+]1=C(c2ccccc2)C2=NCCN2c2cc(N3CCN(Cc4ccccc4)CC3)ccc21 [Example 6, 1,2-Dihydro-4-phenyl-8-(4-phenylmethylpiperazinyl)imidazo[1,2-a]quinoxaline5-oxide] | 25 (≈ 57.1 µM) | 50 (≈ 114 µM) | 50 (≈ 114 µM) | 100 (≈ 229 µM) | < 0.8 | 6.27 | – | 25 (≈ 57.1 µM) | – | 12.5 (≈ 28.6 µM) | 3.1 (≈ 7.08 µM) | 25 (≈ 57.1 µM) | 25 (≈ 57.1 µM) | 100 (≈ 229 µM) | 50 (≈ 114 µM) | – | 25 (≈ 57.1 µM) | 12.5 (≈ 28.6 µM) | 50 (≈ 114 µM) | 50 (≈ 114 µM) | MIC [1, 17]: 25 µg/mL (≈ 57.1 µM); MIC [6, 24]: 12.5 µg/mL (≈ 28.6 µM); MIC ([7]; Fusobacterium necrophorum): 12.5 µg/mL (≈ 28.6 µM); MIC ([13]; strain D (MZ-R), 48 h, 37° C., anaerobic, read-out: MIC): 25 µg/mL (≈ 57.1 µM)
4 | [O-][N+]1=C(c2ccccc2)C2=NCCN2c2nc(N3CCN(Cc4ccccc4)CC3)ccc21 [Example 17, 1,2-Dihydro-4-phenyl-8-(4-phenylmethylpiperazinyl)imidazo[1,2-a]pyrido[3,2-e]pyrazine 5-oxide] | – | – | – | – | – | 3.59 | – | – | – | – | – | – | – | – | – | – | – | – | – | – | –
5 | Cc1ncc([N+](=O)[O-])n1CCO [Metronidazole, reference compound] | – | 0.6 (≈ 3.51 µM) | – | > 100 | – | – | 0.6 (≈ 3.51 µM) | 0.6 (≈ 3.51 µM) | 6.2 (≈ 36.2 µM) | 1.5 (≈ 8.76 µM) | < 0.8 | 0.6 (≈ 3.51 µM) | 0.8 (≈ 4.67 µM) | > 100 | > 100 | 3.1 (≈ 18.1 µM) | – | < 0.8 | > 100 | > 100 | MIC ([1]; 48 h): < 0.8 µg/mL and 0.8 µg/mL; MIC [1, 23]: 1.5 µg/mL (≈ 8.76 µM); MIC ([2]; 48 h): 0.8 µg/mL (≈ 4.67 µM); reduction in B. fragilis ([5]; 40 mg/kg (p.o.)): 3-3.5 log10; ED (1 log reduction) ([5]; read-out: Dose giving 1 log reduction, Metronidazole, p.o., positive control beside the compound of the same line): 1.64 mg/kg; MBC [6]: 0.8 µg/mL and < 0.8 µg/mL; MIC ([6]; 48 h): 0.8 µg/mL (≈ 4.67 µM); MIC [6, 24]: < 0.8 µg/mL; MIC ([10]; 48 h): < 0.8 µg/mL
6 | CN1CCN(c2ccc3c(n2)N2CCN=C2C(c2ccccc2)=[N+]3[O-])CC1 [Example 9, 1,2-Dihydro-8-(4-methylpiperazinyl)-4-phenylimidazo[1,2-a]pyrido[3,2-e]pyrazine 5-oxide] | – | – | 0.8 (≈ 2.21 µM) | – | – | 4.48 | – | 0.8 (≈ 2.21 µM) | – | – | – | – | 0.8 (≈ 2.21 µM) | – | – | 0.8 (≈ 2.21 µM) | 0.8 (≈ 2.21 µM) | – | – | – | MIC ([2]; 48 h): 0.8 µg/mL (≈ 2.21 µM); MIC [6, 24]: 0.8 µg/mL (≈ 2.21 µM); MIC ([10]; 48 h): 0.8 µg/mL (≈ 2.21 µM)
